From PubChem BioAssay (NCI)
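Dose response: 5 concentrations. Exposure: 48 h. Format: 96-well plates. Endpoint: linear interpolation; highest concentration if not reached. The concentration for 50% growth inhibition is given as GI50. The concentration for full growth arrest is given as TGI.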

Tests used:
Test in all cases: NCI tumour cell line growth inhibition, 48 h
SNB-19 CNS = test system: SNB-19 CNS
MDA-MB-231 breast = test system: MDA-MB-231 breast
HCC-2998 colon = test system: HCC-2998 colon
OVCAR-8 ovarian = test system: OVCAR-8 ovarian
PC-3 prostate = test system: PC-3 prostate
UACC-257 melanoma = test system: UACC-257 melanoma
BT-549 breast = test system: BT-549 breast
786-0 renal = test system: 786-0 renal
CAKI-1 renal = test system: CAKI-1 renal
HCT-116 colon = test system: HCT-116 colon
SF-539 CNS = test system: SF-539 CNS
NCI/ADR-RES ovarian = test system: NCI/ADR-RES ovarian
SNB-75 CNS = test system: SNB-75 CNS
MCF7 breast = test system: MCF7 breast
SF-295 CNS = test system: SF-295 CNS
HCT-15 colon = test system: HCT-15 colon
T-47D breast = test system: T-47D breast
NCI-H23 lung = test system: NCI-H23 lung
COLO 205 colon = test system: COLO 205 colon
NCI-H522 lung = test system: NCI-H522 lung
LOX IMVI melanoma = test system: LOX IMVI melanoma
SK-MEL-28 melanoma = test system: SK-MEL-28 melanoma
ACHN renal = test system: ACHN renal
NCI-H226 lung = test system: NCI-H226 lung
RPMI-8226 leukemia = test system: RPMI-8226 leukemia
HOP-92 NSCLC = test system: HOP-92 NSCLC
RXF 393 renal = test system: RXF 393 renal
EKVX NSCLC = test system: EKVX NSCLC

With COc1ccc(C(O)c2cc3c(N)c(C(=O)Nc4cccc(OC)c4)sc3nc2C)cc1 (stereo unspecified) the GI50 (SNB-19 CNS) was 1.99 µM, the TGI (SNB-19 CNS) was > 50 µM and the GI50 (MDA-MB-231 breast) was 1.39 µM. It also gave a TGI (MDA-MB-231 breast) of 3.97 µM, a GI50 (HCC-2998 colon) of 0.871 µM and a TGI (HCC-2998 colon) of 1.63 µM. For the same molecule, the GI50 (OVCAR-8 ovarian) was 1.57 µM, the TGI (OVCAR-8 ovarian) was > 50 µM and the GI50 (PC-3 prostate) was 1.15 µM. The TGI (PC-3 prostate) was 3.04 µM, the GI50 (UACC-257 melanoma) was 1.74 µM and the TGI (UACC-257 melanoma) was > 50 µM. It also gave a GI50 (BT-549 breast) of 1.23 µM, a TGI (BT-549 breast) of 3.22 µM and a GI50 (786-0 renal) of 1.14 µM. The TGI (786-0 renal) was 2.79 µM, the GI50 (CAKI-1 renal) was 1.53 µM and the TGI (CAKI-1 renal) was 5.27 µM. For the same molecule, the GI50 (HCT-116 colon) was 0.242 µM, the TGI (HCT-116 colon) was 0.953 µM and the GI50 (SF-539 CNS) was 1.26 µM. It also gave a TGI (SF-539 CNS) of 3.03 µM, a GI50 (NCI/ADR-RES ovarian) of 1.38 µM and a TGI (NCI/ADR-RES ovarian) of 3.96 µM. The GI50 (SNB-75 CNS) was 12.2 µM, the TGI (SNB-75 CNS) was > 50 µM and the GI50 (MCF7 breast) was 0.289 µM. For the same molecule, the TGI (MCF7 breast) was > 50 µM, the GI50 (SF-295 CNS) was 1.42 µM and the TGI (SF-295 CNS) was 4.5 µM. For the same molecule, the GI50 (HCT-15 colon) was 1 µM, the TGI (HCT-15 colon) was 2.51 µM and the GI50 (T-47D breast) was 3.83 µM. The TGI (T-47D breast) was > 50 µM, the GI50 (NCI-H23 lung) was 1.2 µM and the TGI (NCI-H23 lung) was 3.29 µM. For the same molecule, the GI50 (COLO 205 colon) was 1.75 µM, the TGI (COLO 205 colon) was > 50 µM and the GI50 (NCI-H522 lung) was 1.43 µM. It also gave a TGI (NCI-H522 lung) of 4.94 µM, a GI50 (LOX IMVI melanoma) of 0.879 µM and a TGI (LOX IMVI melanoma) of 1.64 µM. The GI50 (SK-MEL-28 melanoma) was 1.58 µM, the TGI (SK-MEL-28 melanoma) was 4.94 µM and the GI50 (ACHN renal) was 1.21 µM. For the same molecule, the TGI (ACHN renal) was 3.15 µM, the GI50 (NCI-H226 lung) was 4.01 µM and the TGI (NCI-H226 lung) was 36.8 µM. For the same molecule, the GI50 (RPMI-8226 leukemia) was 0.174 µM, the TGI (RPMI-8226 leukemia) was 0.809 µM and the GI50 (HOP-92 NSCLC) was > 50 µM. The TGI (HOP-92 NSCLC) was > 50 µM, the GI50 (RXF 393 renal) was 1.01 µM and the TGI (RXF 393 renal) was 2.31 µM. The GI50 (EKVX NSCLC) was 1.6 µM and the TGI (EKVX NSCLC) was > 50 µM.
